Measurements published in ChEMBL document CHEMBL3526091, “Pharmacokinetics, metabolism, and excretion of the glycogen synthase kinase-3 inhibitor LY2090314 in rats, dogs, and humans: a case study in rapid clearance by extensive metabolism with low circulating metabolite exposure” (Drug Metab Dispos, 2013).

Tests used:
[1] = Tmax in cancer patient at 60 mg for 60 mins treated 1/1 cycle/day; assay type: ADME, organism-based; parameters: dosed compound name LY2090314; conditions: human, in vivo
[2] = Cmax in cancer patient at 60 mg for 60 mins treated 1/8 cycle/day; assay type: ADME, organism-based; parameters: dose 60 mg, dosed compound name LY2090314; conditions: human, in vivo
Rattus norvegicus [3] = experiment: Total drug recovery in bile duct-cannulated Sprague-Dawley rat at 5 mg/kg, iv administered for 30 mins during 0 to 168 hrs time interval by radio analysis; assay type: ADME, organism-based; parameters: dose 5 mg/kg, dosed compound name [14C]LY2090314, route intravenous; conditions: in vivo
[4] = Drug recovery in bile duct-cannulated Sprague-Dawley rat urine at 5 mg/kg, iv administered for 30 mins during 0 to 168 hrs time interval by radio analysis; assay type: ADME, organism-based; parameters: dose 5 mg/kg, dosed compound name [14C]LY2090314, route intravenous; conditions: in vivo
[5] = Cmax in cancer patient at 10 mg for 60 mins treated 2/1 cycle/day; assay type: ADME, organism-based; parameters: dose 10 mg, dosed compound name LY2090314; conditions: human, in vivo
Rattus norvegicus [6] = experiment: Cmax in Sprague-Dawley rat assessed as total radioactivity at 5 mg/kg, iv administered for 30 mins; assay type: ADME, organism-based; parameters: dose 5 mg/kg, dosed compound name [14C]LY2090314, route intravenous; conditions: in vivo, 0.5 h
[7] = Volume of distribution at steady state in cancer patient at 20 mg for 60 mins treated 2/1 cycle/day; assay type: ADME, organism-based; parameters: dosed compound name LY2090314; conditions: human, in vivo, read-out: Vdss
[8] = Volume of distribution at steady state in Sprague-Dawley rat at 5 mg/kg, iv administered for 30 mins; assay type: ADME, organism-based; parameters: dose 5 mg/kg, dosed compound name [14C]LY2090314, route intravenous; conditions: in vivo, read-out: Vdss
[9] = AUC (0 to infinity) in cancer patient at 10 mg for 60 mins treated 1/1 cycle/day; assay type: ADME, organism-based; parameters: dose 10 mg, time infinity, dosed compound name LY2090314; conditions: human, plasma
[10] = Half life in cancer patient at 120 mg for 60 mins treated 1/8 cycle/day; assay type: ADME, organism-based; parameters: dosed compound name LY2090314; conditions: human, in vivo
Rattus norvegicus [11] = experiment: Tmax in Sprague-Dawley rat assessed as total radioactivity at 5 mg/kg, iv administered for 30 mins; assay type: ADME, organism-based; parameters: dose 5 mg/kg, dosed compound name [14C]LY2090314, route intravenous; conditions: in vivo, 0.5 h
[12] = Drug recovery in Sprague-Dawley rat carcass at 5 mg/kg, iv administered for 30 mins during 0 to 168 hrs time interval by radio analysis; assay type: ADME, organism-based; parameters: dose 5 mg/kg, dosed compound name [14C]LY2090314, route intravenous; conditions: in vivo
[13] = Plasma protein binding in beagle dog; assay type: ADME, cell-free, Canis lupus familiaris; parameters: dosed compound name [14C]LY2090314; conditions: read-out: PPB
[14] = Drug recovery in bile duct-cannulated Sprague-Dawley rat assessed as radioactivity in bile during 0 to 12 hrs at 5 mg/kg, iv administered for 30 mins relative to dosed radioactivity; assay type: ADME, organism-based; parameters: dose 5 mg/kg, dosed compound name [14C]LY2090314, route intravenous; conditions: in vivo
[15] = Half life in cancer patient at 60 mg for 60 mins treated 1/1 cycle/day; assay type: ADME, organism-based; parameters: dosed compound name LY2090314; conditions: human, in vivo
[16] = Clearance in cancer patient at 120 mg for 60 mins treated 1/8 cycle/day; assay type: ADME, organism-based; parameters: dosed compound name LY2090314; conditions: human, in vivo
[17] = Tmax in cancer patient at 10 mg for 60 mins treated 2/1 cycle/day; assay type: ADME, organism-based; parameters: dosed compound name LY2090314; conditions: human, in vivo
[18] = AUC (0 to infinity) in cancer patient at 20 mg for 60 mins treated 2/1 cycle/day; assay type: ADME, organism-based; parameters: dose 20 mg, time infinity, dosed compound name LY2090314; conditions: human, plasma
[19] = Tmax in cancer patient at 80 mg for 60 mins treated 1/1 cycle/day; assay type: ADME, organism-based; parameters: dosed compound name LY2090314; conditions: human, in vivo
[20] = AUC (0 to infinity) in cancer patient at 80 mg for 60 mins treated 1/8 cycle/day; assay type: ADME, organism-based; parameters: dose 80 mg, time infinity, dosed compound name LY2090314; conditions: human, plasma
[21] = Tmax in cancer patient at 40 mg for 60 mins treated 1/8 cycle/day; assay type: ADME, organism-based; parameters: dosed compound name LY2090314; conditions: human, in vivo
Rattus norvegicus [22] = experiment: AUC (0 to infinity) in Sprague-Dawley rat assessed as total radioactivity at 5 mg/kg, iv administered for 30 mins; assay type: ADME, organism-based, Plasma; parameters: dose 5 mg/kg, dosed compound name [14C]LY2090314, route intravenous, time infinity; conditions: in vivo, 0.5 h
[23] = Drug recovery in Sprague-Dawley rat urine at 5 mg/kg, iv administered for 30 mins during 0 to 168 hrs time interval by radio analysis; assay type: ADME, organism-based; parameters: dose 5 mg/kg, dosed compound name [14C]LY2090314, route intravenous; conditions: in vivo
[24] = Drug recovery in beagle dog urine at 5 mg/kg, iv administered for 30 mins during 0 to 24 hrs time interval by radio analysis; assay type: ADME, organism-based, Canis lupus familiaris; parameters: dose 5 mg/kg, dosed compound name [14C]LY2090314, route intravenous; conditions: in vivo
[25] = Volume of distribution at steady state in cancer patient at 40 mg for 60 mins treated 1/8 cycle/day; assay type: ADME, organism-based; parameters: dosed compound name LY2090314; conditions: human, in vivo, read-out: Vdss
Plasma = experiment: Drug recovery in beagle dog plasma assessed as radiochemical peak area at 5 mg/kg, iv administered for 30 mins after 2 hrs by radio analysis; assay type: ADME, organism-based, Canis lupus familiaris; parameters: dose 5 mg/kg, dosed compound name [14C]LY2090314, route intravenous; conditions: in vivo
[26] = AUC (0 to infinity) in Sprague-Dawley rat at 5 mg/kg, iv administered for 30 mins; assay type: ADME, organism-based; parameters: time infinity, dose 5 mg/kg, dosed compound name [14C]LY2090314, route intravenous; conditions: plasma

## O=C1NC(=O)C(c2cnc3ccccn23)=C1c1cn2c3c(cc(F)cc13)CN(C(=O)N1CCCCC1)CC2 [LY-2090314]
[1]
  Tmax: 0.55 h
[2]
  Cmax: 1.04 µg/mL
Rattus norvegicus [3]
  Radiolabel recovery: 94.9%
[4]
  Radiolabel recovery: 1.94%
[5]
  Cmax: 0.106 µg/mL
Rattus norvegicus [6]
  Cmax: 2.08 µg/mL
[7]
  Vd: 71.5 L
[8]
  Vd: 1.19 L/kg
[9]
  AUC(0-inf): 0.216 µg·h/mL
[10]
  half-life: 3.05 h
Rattus norvegicus [11]
  Tmax: 0.5 h
[12]
  Radiolabel recovery: 0.07%
[13]
  fraction unbound: 0.01
[14]
  Radiolabel recovery: 85.2%
[15]
  half-life: 3.15 h
[16]
  clearance: 638 mL/min
[17]
  Tmax: 0.92 h
[18]
  AUC(0-inf): 0.404 µg·h/mL
[19]
  Tmax: 1 h
[20]
  AUC(0-inf): 1.83 µg·h/mL
[21]
  Tmax: 1 h
Rattus norvegicus [22]
  AUC: 1.79 µg·h/mL
[23]
  Radiolabel recovery: 0.8%
[24]
  Radiolabel recovery: 19.8%
[25]
  Vd: 64.1 L
Plasma
  Radiolabel recovery: 36.09%
[26]
  AUC(0-inf): 1.26 µg·h/mL
